Reference: article PMC9599641, “TNP Analogues Inhibit the Virulence Promoting IP3-4 Kinase Arg1 in the Fungal Pathogen Cryptococcus neoformans” (Biomolecules, 2022)
Entries after “also recorded” stand apart in the source; their conditions may differ. Like-named read-outs stand apart in the source and are kept apart here.

Columns and labels:
[1] = biological target: T1, HsIPMK (Homo sapiens, UniProt Q8NFU5); settings: 200 µM IP3, ATP 25–400 µM
Procedure: (§1) The kinetic properties of the purified recombinant enzymes were determined and compared using a Kinase-Glo® Max Luminescent Kinase Assay kit (Promega, Madison, WI, USA) in a reaction buffer consisting of 20 mM HEPES pH 6.8, 100 mM NaCl, 6 mM MgCl2, 20 µg/mL BSA, 1 mM DTT [14]. The IP3 concentration was fixed at 200 µM. The ATP starting concentrations ranged between 25 µM to 400 µM and the ATP remaining after up to 10-min reaction time was assessed by adding Kinase-Glo® reagent. An ATP standard curve (0–500 µM) was also generated using the same kit. The ATP concentration remaining was measured as luminescence using a SpectraMax iD5 plate reader. The relative luminescence unit (RLU) was converted to ATP concentration using the ATP standard curve. The reaction velocity was calculated for each starting ATP concentration and the data was fitted to the Michaelis-Menten equation using GraphPad Prism 9 to obtain Vmax and Km values.

[2] = biological target: CaIpk2 (Candida albicans, UniProt Q59YE9); settings: 200 µM IP3, ATP 25–400 µM
Procedure: as §1

[3] = test system: rat IPMK; design: method as in PMID 24670057; settings: read-out: Km of rat IPMK for ATP; IP3 used as the substrate; cited from earlier work
[4] = biological target: T1, HsIPMK; settings: read-out: Km for ATP, HsIPMK, cited from earlier work
[5] = test system: CnArg1 (IP3-4K from C. neoformans); experiment: Kinase-Glo enzyme inhibition assay, recombinant CnArg1; type: biochemical; settings: selectivity, ratio higher than 1 = more selective for CnArg1
Procedure: (§2) The 2,6-disubstituted purine compounds are ATP-competitive IPK inhibitors. […] The amount of IP3 and kinase used for each recombinant enzyme was determined following the manufacturer’s instructions, and this concentration was used to assess the inhibitory properties of TNP analogues against each of the recombinant enzymes.
(§3) The analogues were dissolved in DMSO. For the assay, the inhibitors were added to the reaction mixture to achieve a final concentration of 50 µM in 5% DMSO (1:20 dilution). To achieve inhibitor concentrations lower than 50 µM in the assay, the inhibitor stock was first serially diluted two-fold in DMSO and added to the reaction mixture, to achieve concentrations ranging between 0.8 μM and 50 µM in 5% DMSO. Once all analogues and their dilution series had been added, the reaction was started by adding an optimal amount of recombinant IP3-4K enzyme. The reaction was stopped after 10-min incubation at room temperature by adding a 50 µL of Kinase-Glo® reagent. The mixture was incubated at room temperature in the dark for 10–15 min. Luminescence (RLU) was measured using a SpectraMax iD5 and an integration time of 0.5 s. Percent enzyme activity was defined as (RLUnegative − RLUsample)/(RLUnegative − RLUpositive) × 100. ‘Positive’ refers to 100% enzyme activity (no inhibitor used as the positive control), while ‘negative’ refers to 0% enzyme activity (no enzyme used as the negative control).
(§4) Next, we determined the inhibitory properties of TNP. TNP is an ATP-competitive inhibitor [34]. […] IP3 and enzyme concentrations were also optimised following the manufacturer’s instructions. […] This optimal amount of IP3 was then used to test varying concentrations of the kinase ranging from 0 to 20 ng/µL. The amount of kinase that produced luminescence values in the linear range of the kinase titration curve was deemed to be the optimal kinase amount.

[6] = biological target: CnArg1 (IP3-4K from C. neoformans) (Cryptococcus neoformans var. grubii, UniProt J9W3G0); experiment: as above; type: biochemical; settings: 10 µM ATP, 50 µM IP3, 2.5 ng/µL enzyme, 10 min, room temperature, 5% DMSO; mean ± SEM
Procedure: as §2, §3, §4

[7] = Solubility observations; type: physicochemical; settings: for Solubility in SPR analysis: SPR running buffer with 5% DMSO, KD could not be determined; for Solubility in enzyme assay conditions: 5% DMSO
[8] = biological target: T1, HsIPMK; experiment: Kinase-Glo enzyme inhibition assay, recombinant HsIPMK; note: 6 ng/µL enzyme; type: biochemical; design: GST (N, cleaved yes); made in house; host or cells: E. coli BL21 (DE3); plasmid made by GenScript
Procedure: as §2, §3, §4

[9] = test system: human IP3K; design: method as in PMID 12210991; settings: read-out: IC50 against IP3K; cited from earlier work
[10] = test system: rat IPMK; design: method as in PMID 24670057; settings: at a concentration of 10 µM; cited from earlier work
[11] = test system: IP6K; design: method as in PMID 19208622; settings: read-out: IC50 against IP6K; cited from earlier work
[12] = test system: CaIpk2 (IP3-4K from C. albicans); experiment: Kinase-Glo enzyme inhibition assay, recombinant CaIpk2; type: biochemical, Candida albicans; settings: tested up to 50 µM; 10 µM ATP, 25 µM IP3
Procedure: as §2
as §3, with “Percent enzyme activity was defined as (RLUnegative − RLUsample)/(RLUnegative − RLUpositive) × 100. ‘Positive’ refers to 100% enzyme activity (no inhibitor used as the positive control), while ‘negative’ refers to 0% enzyme activity (no enzyme used as the negative control).” left out
Next, we determined the inhibitory properties of TNP. […] The amount of kinase that produced luminescence values in the linear range of the kinase titration curve was deemed to be the optimal kinase amount.

T1 sequence (Q8NFU5 whole entry): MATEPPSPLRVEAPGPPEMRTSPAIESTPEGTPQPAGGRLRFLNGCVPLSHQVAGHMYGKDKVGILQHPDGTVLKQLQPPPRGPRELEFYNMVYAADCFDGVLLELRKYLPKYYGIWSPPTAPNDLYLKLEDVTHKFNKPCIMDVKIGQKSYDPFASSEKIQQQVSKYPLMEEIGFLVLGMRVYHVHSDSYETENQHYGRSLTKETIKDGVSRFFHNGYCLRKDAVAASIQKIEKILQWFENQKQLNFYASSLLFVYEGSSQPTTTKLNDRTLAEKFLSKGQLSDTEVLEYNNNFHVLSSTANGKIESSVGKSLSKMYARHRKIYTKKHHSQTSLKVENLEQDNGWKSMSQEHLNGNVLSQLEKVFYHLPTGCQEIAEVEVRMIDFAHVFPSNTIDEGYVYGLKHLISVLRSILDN
CnArg1 (IP3-4K from C. neoformans) (Cryptococcus neoformans var. grubii, UniProt J9W3G0), sequence (J9W3G0 entry or part of it): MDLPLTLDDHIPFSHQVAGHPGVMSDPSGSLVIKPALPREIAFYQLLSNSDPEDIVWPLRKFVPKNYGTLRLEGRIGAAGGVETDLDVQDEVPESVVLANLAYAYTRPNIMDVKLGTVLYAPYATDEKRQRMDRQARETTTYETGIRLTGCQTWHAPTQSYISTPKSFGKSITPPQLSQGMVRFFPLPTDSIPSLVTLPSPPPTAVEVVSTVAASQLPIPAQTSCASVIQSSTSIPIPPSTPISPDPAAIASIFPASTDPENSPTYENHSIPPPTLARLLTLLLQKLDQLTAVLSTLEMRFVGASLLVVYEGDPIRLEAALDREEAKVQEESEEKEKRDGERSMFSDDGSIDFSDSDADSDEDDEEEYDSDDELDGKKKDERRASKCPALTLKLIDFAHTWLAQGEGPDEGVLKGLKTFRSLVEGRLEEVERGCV
CaIpk2, sequence (Q59YE9 1-350): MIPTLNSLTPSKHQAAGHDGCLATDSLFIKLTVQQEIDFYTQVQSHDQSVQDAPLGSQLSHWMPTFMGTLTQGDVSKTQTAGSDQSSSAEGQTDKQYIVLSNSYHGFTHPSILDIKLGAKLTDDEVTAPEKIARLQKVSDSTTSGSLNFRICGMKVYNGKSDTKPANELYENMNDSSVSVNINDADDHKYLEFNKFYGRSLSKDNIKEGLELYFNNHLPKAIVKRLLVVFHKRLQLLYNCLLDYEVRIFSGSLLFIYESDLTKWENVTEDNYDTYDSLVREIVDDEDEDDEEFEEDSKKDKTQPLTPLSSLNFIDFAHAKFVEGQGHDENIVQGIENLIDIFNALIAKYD

Row | Compound | HsIPMK/CnArg1 IC50 ratio [5] | IC50 [6] | IC50 [8] | other results
1 | Nc1ncnc2c1ncn2[C@@H]1O[C@H](COP(=O)(O)OP(=O)(O)OP(=O)(O)O)[C@@H](O)[C@H]1O [ATP] |  |  |  | Vmax, HsIPMK [1]: 0.6 ± 0.07 µmol ATP/mg protein/min; Km ([1]; read-out: Km for ATP, HsIPMK, mean ± SEM): 128 ± 35 µM; Vmax, CaIpk2 [2]: 21 ± 3 µmol ATP/mg protein/min; Km [3]: 64 µM; Km ([4]; IP4 used as the substrate): 10 µM; Km ([4]; PIP2 used as the substrate): 61 ± 6 µM
2 | FC(F)(F)c1cccc(CNc2nc(NCc3ccccc3)c3nc[nH]c3n2)c1 [Compound 9] | 1.1 | 28 ± 7 µM | 32 ± 3 µM | Solubility in SPR analysis [7]: Poor solubility—ND
3 | FC(F)Oc1cccc(CNc2nc(NCc3ccccc3)c3nc[nH]c3n2)c1 [Compound 10] | 2.8 | 20 ± 1 µM | 55 ± 2 µM | 
4 | Cc1cccc(CNc2nc(NCc3ccccc3)c3nc[nH]c3n2)c1 [Compound 11] |  |  |  | Solubility in enzyme assay conditions [7]: poorly soluble; also recorded: Low solubility—ND
5 | FC(F)(F)Oc1cccc(CNc2nc(NCc3ccccc3)c3nc[nH]c3n2)c1 [Compound 12] |  | 77 ± 14 µM |  | 
6 | COc1cccc(CNc2nc(NCc3ccccc3)c3nc[nH]c3n2)c1 [Compound 13] | 6.0 |  |  | 
7 | Brc1cccc(CNc2nc(NCc3ccccc3)c3nc[nH]c3n2)c1 [Compound 14] |  | 44 ± 2 µM |  | 
8 | NCc1cccc(CNc2nc(NCc3ccccc3)c3[nH]cnc3n2)c1 [Compound 15] |  | 46 ± 22 µM |  | 
9 | COC(=O)c1cccc(CNc2nc(NCc3ccccc3)c3nc[nH]c3n2)c1 [Compound 16] | 3.4 | 14 ± 1 µM | 48 ± 2 µM | 
10 | O=C(O)c1cccc(CNc2nc(NCc3ccccc3)c3nc[nH]c3n2)c1 [Compound 17] |  | 45 ± 3 µM |  | 
11 | FC(F)(F)c1ccccc1CNc1nc(NCc2ccccc2)c2nc[nH]c2n1 [Compound 18] |  |  |  | Solubility in enzyme assay conditions [7]: poorly soluble; also recorded: Low solubility—ND
12 | FC(F)(F)c1ccc(CNc2nc(NCc3ccccc3)c3nc[nH]c3n2)cc1 [Compound 19] |  |  |  | Solubility in enzyme assay conditions [7]: poorly soluble; also recorded: Low solubility—ND
13 | FC(F)(F)Oc1ccccc1CNc1nc(NCc2ccccc2)c2nc[nH]c2n1 [Compound 20] |  | 71 ± 12 µM |  | 
14 | FC(F)(F)Oc1ccccc1CNc1nc(NCc2ccccc2)c2nc[nH]c2n1 [Compound 21] |  | 57 ± 6 µM |  | 
15 | FC(F)(F)Oc1ccc(CNc2nc(NCc3ccccc3)c3nc[nH]c3n2)cc1 [Compound 22] |  |  |  | CnArg1 IC50 [6]: Not inhibitory
16 | Fc1ccc(CNc2nc(NCc3ccccc3)c3nc[nH]c3n2)cc1 [Compound 23] | 2.6 | 21 ± 1 µM | 55 ± 4 µM | 
17 | COc1ccccc1CNc1nc(NCc2ccccc2)c2nc[nH]c2n1 [Compound 24] | 3.7 | 24 ± 1 µM | 89 ± 9 µM | 
18 | c1ccc(CNc2nc(NCc3ncccn3)nc3[nH]cnc23)cc1 [Compound 25] |  |  |  | CnArg1 IC50 [6]: Not inhibitory
19 | Cn1ccnc1CNc1nc(NCc2ccccc2)c2nc[nH]c2n1 [Compound 26] |  |  |  | CnArg1 IC50 [6]: Not inhibitory
20 | c1ccc(CNc2nc(NCC3CCOCC3)nc3[nH]cnc23)cc1 [Compound 27] | 3.5 | 35 ± 2 µM | 123 ± 80 µM | 

Row | Compound | HsIPMK/CnArg1 IC50 ratio [5] | IC50 [6] | IC50 [8] | other results
21 | OCCNc1nc(NCc2ccccc2)c2[nH]cnc2n1 [Compound 28] |  | 127 ± 32 µM |  | 
22 | COCCNc1nc(NCc2ccccc2)c2nc[nH]c2n1 [Compound 29] |  | 75 ± 9 µM |  | 
23 | COCCNc1nc(NCc2cccc(C(F)(F)F)c2)nc2[nH]cnc12 [Compound 30] | 2.4 |  |  | 
24 | COCCNc1nc(NCc2cccc(Br)c2)nc2[nH]cnc12 [Compound 31] | 1.5 | 29 ± 3 µM | 43 ± 4 µM | 
25 | COCCNc1nc(NCc2cccc(I)c2)nc2[nH]cnc12 [Compound 32] | 4.0 | 12 ± 1 µM | 48 ± 3 µM | 
26 | COCCNc1nc(NCc2cccc(C(=O)OC)c2)nc2[nH]cnc12 [Compound 33] | 3.8 | 38 ± 5 µM | 144 ± 55 µM | 
27 | COCCNc1nc(NCc2cccc(C(=O)O)c2)nc2[nH]cnc12 [Compound 34] |  |  |  | CnArg1 IC50 [6]: Not inhibitory
28 | COCCNc1nc(NCc2cccnc2)nc2[nH]cnc12 [Compound 35] |  | 87 ± 9 µM |  | 
29 | COCCNc1nc(NCc2cccc(O)c2)nc2[nH]cnc12 [Compound 36] |  | 55 ± 6 µM |  | 
30 | COCCNc1nc(NCc2ccc(OC)cc2)nc2[nH]cnc12 [Compound 38] |  | 44 ± 6 µM |  | 
31 | COCCNc1nc(NCCc2ccc(OC)cc2)nc2[nH]cnc12 [Compound 39] | 0.9 | 22 ± 3 µM | 19 ± 1 µM | 
32 | COCCNc1nc(Nc2ccc(OC)cc2)nc2[nH]cnc12 [Compound 40] | 0.4 | 14 ± 1 µM | 5 ± 1 µM | 
33 | FC(F)(F)c1cccc(CNc2nc(N3CCOCC3)c3nc[nH]c3n2)c1 [Compound 41] | 3.4 | 24 ± 1 µM | 82 ± 9 µM | 
34 | FC(F)(F)c1cccc(CNc2nc(NC3CCOCC3)c3nc[nH]c3n2)c1 [Compound 42] | 3.7 |  |  | 
35 | FC(F)(F)c1cccc(CNc2nc(NCc3cccnc3)c3nc[nH]c3n2)c1 [Compound 43] | 2.8 | 27 ± 2 µM | 75 ± 8 µM | 
36 | COc1ccc(CNc2nc(NCc3cccc(C(F)(F)F)c3)nc3[nH]cnc23)cc1 [Compound 44] |  | 82 ± 13 µM |  | 
37 | CC(C)n1cnc2c(NCc3ccccc3)nc(NCc3cccc(C(F)(F)F)c3)nc21 [Compound 45] |  |  |  | CnArg1 IC50 [6]: did not have any inhibitory activity
38 | COCCNc1nc(NCc2cccc(Br)c2)nc2c1ncn2C [Compound 46] |  |  |  | CnArg1 IC50 [6]: did not have any inhibitory activity
39 | O=[N+]([O-])c1ccc(CNc2nc(NCc3cccc(C(F)(F)F)c3)nc3[nH]cnc23)cc1 [TNP, N2-(m-trifluorobenzylamino)-N6-(p-nitrobenzylamino)purine] | 0.3 |  |  | IC50 [9]: 10 µM; Inhibition of rat IPMK [10]: does not inhibit; Solubility in SPR analysis [7]: Poor solubility—ND; IC50 [11]: 0.47 µM; Inhibition of CaIpk2 [12]: did not inhibit; also recorded: no inhibitory activity
